PMC6225165, “Design and Synthesis of Novel Dehydroepiandrosterone Analogues as Potent Antiproliferative Agents” (Molecules : A Journal of Synthetic Chemistry and Natural …, 2018)

Key:
[1] = test system: A549; assay: MTT antiproliferative assay, A549; assay type: cell-based, human; settings: for % Growth Inhibition at 100 μM A549 / IC50 / inhibition at 100 µM: 48 h, MTT; for inhibition at 100 µM: read-out: % Growth Inhibition at 100 μM A549
Method: (§1) The antiproliferative activity of the title compounds against the panel of six different human cancer cell lines, viz. lung (A549), cervix (HeLa), liver (HepG-2), liver (BEL7402), colorectal (HCT116), and breast (MCF-7) cell lines, was evaluated using a standard MTT-based colorimetric assay. All cell lines were obtained from the Key Laboratory of Natural Resources and Functional Molecules of the Changbai Mountain (Yanbian University) and maintained in Dulbecco’s modified Eagle’s medium (DMEM) and RPMI Media 1640 (RPMI1640), supplemented with 10% foetal bovine serum (FBS) at 37 °C in a humidified atmosphere containing 5% CO2.
(§2) Cells were plated in 96-well plates at appropriate densities to ensure exponential growth throughout the experimental period (9 × 10^3 cells per well), and then allowed to adhere for 24 h. Cells were then treated for 48 h with each compound. After 48 h of incubation, 10 μL of MTT solution were added to each well to a final concentration of 2 mg·mL^−1. Plates were then incubated for a further 4 h. After incubation, the MTT solution was removed and 150 μL of DMSO were added to each well for coloration. The plates were shaken vigorously for 10 min at room temperature to ensure complete solubilisation. The optometric density (OD) was read on a microplate reader (EL × 800, BioTek, Highland Park, Winooski, VT, USA) at 492 nm, and the data were subsequently analysed. The percentage of cell growth inhibition was calculated from the following equation:Inhibitory rate (%) = [1 − (ODtreated − ODblank)/(ODcontrol − ODblank)] × 100.
(§3) To obtain the antiproliferative activity of compounds 2a–2w, the compounds were selected in the same way with four serial concentrations (1, 10, 50 and 100 μM) of those compounds. The optometric density (OD) reading was then used to calculate the IC50.

[2] = test system: HCT116; assay: MTT antiproliferative assay, HCT116; assay type: cell-based, human; settings: for % Growth Inhibition at 100 μM HCT116 / IC50 / inhibition at 100 µM: 48 h, MTT; for inhibition at 100 µM: read-out: % Growth Inhibition at 100 μM HCT116
Method: as §1, §2, §3

[3] = test system: MCF-7; assay: MTT antiproliferative assay, MCF-7; assay type: cell-based, human; settings: for % Growth Inhibition at 100 μM MCF-7 / IC50 / inhibition at 100 µM: 48 h, MTT; for inhibition at 100 µM: read-out: % Growth Inhibition at 100 μM MCF-7
Method: as §1, §2, §3

[4] = test system: human normal liver (L02) cells; assay: MTT assay on normal cell line L02; assay type: cell-based; settings: 48 h, MTT; for % Growth Inhibition at 100 μM L02 / inhibition at 100 µM: normal cells; for IC50: normal cell line; for inhibition at 100 µM: read-out: % Growth Inhibition at 100 μM L02
[5] = test system: HepG-2; assay: MTT antiproliferative assay, HepG-2; assay type: cell-based, human; settings: for % Growth Inhibition at 100 μM HepG-2 / IC50 / inhibition at 100 µM: 48 h, MTT; for inhibition at 100 µM: read-out: % Growth Inhibition at 100 μM HepG-2
Method: as §1, §2, §3

[6] = test system: Hela; assay: MTT antiproliferative assay, Hela; assay type: cell-based, human; settings: for % Growth Inhibition at 100 μM Hela / IC50 / inhibition at 100 µM: 48 h, MTT; for inhibition at 100 µM: read-out: % Growth Inhibition at 100 μM Hela
Method: as §1, §2, §3

[7] = test system: BEL7402; assay: MTT antiproliferative assay, BEL7402; assay type: cell-based, human; settings: for % Growth Inhibition at 100 μM BEL7402 / IC50 / inhibition at 100 µM: 48 h, MTT; for inhibition at 100 µM: read-out: % Growth Inhibition at 100 μM BEL7402
Method: as §1, §2, §3

[8] = IC50 on normal cells (L02)/IC50 on tumour cells

| SMILES | % Growth Inhibition at 100 μM A549 [1] | % Growth Inhibition at 100 μM HCT116 [2] | % Growth Inhibition at 100 μM MCF-7 [3] | % Growth Inhibition at 100 μM L02 [4] | % Growth Inhibition at 100 μM HepG-2 [5] | % Growth Inhibition at 100 μM Hela [6] | % Growth Inhibition at 100 μM BEL7402 [7] | inhibition at 100 µM ([1]; Homo sapiens, A549) | inhibition at 100 µM ([2]; Homo sapiens, HCT-116) | inhibition at 100 µM ([3]; Homo sapiens, MCF7) | inhibition at 100 µM ([4]; Homo sapiens, L02) | inhibition at 100 µM ([5]; Homo sapiens, HepG2) | inhibition at 100 µM ([6]; Homo sapiens) | inhibition at 100 µM ([7]; Homo sapiens, Bel-7402) | other results |
| --- | --- | --- | --- | --- | --- | --- | --- | --- | --- | --- | --- | --- | --- | --- | --- |
| COc1ccc(-n2cc(/C=C3\CC4C5CC=C6CC(O)CCC6(C)C5CCC4(C)C3=O)nn2)cc1 (stereo not shown) [Compound 2s, (E)-3-hydroxy-16-((1-(4-methoxyphenyl)-1H-1,2,3-triazol-4-yl)methylene)-10,13-dimethyl-1,3,4,7,8,9,10,11,12,13,15,16-dodecahydro-2H-cyclopenta[a]phenan-thren-17(14H)-one] | 44.0% | 70.7% | 58.1% | 58.5% | 42.3% | 14.9% | 38.4% |  |  |  |  |  |  |  | IC50 [1]: > 100 µM; IC50 [2]: 56.9 µM; IC50 [3]: 69.4 µM; IC50 [4]: 81.1 µM; IC50 [5]: > 100 µM; IC50 [6]: > 100 µM; IC50 [7]: > 100 µM |
| COc1ccccc1-n1cc(/C=C2\CC3C4CC=C5CC(O)CCC5(C)C4CCC3(C)C2=O)nn1 (stereo not shown) [Compound 2q, (E)-3-hydroxy-16-((1-(2-methoxyphenyl)-1H-1,2,3-triazol-4-yl)methylene)-10,13-dimethyl-1,3,4,7,8,9,10,11,12,13,15,16-dodecahydro-2H-cyclopenta[a]phenan-thren-17(14H)-one] | 7.6% | 14.3% | 34.6% | NA (NA: antiproliferative activity <5%) | NA (NA: antiproliferative activity <5%) | NA (NA: antiproliferative activity <5%) | 10.0% |  |  |  |  |  |  |  |  |
| CC12CCC3C(CC=C4CC(O)CCC43C)C1C/C(=C\c1cn(-c3ccc(F)cc3)nn1)C2=O (stereo not shown) [Compound 2d, (E)-16-((1-(4-fluorophenyl)-1H-1,2,3-triazol-4-yl)methylene)-3-hydroxy-10,13-dimethyl-1,3,4,7,8,9,10,11,12,13,15,16-dodecahydro-2H-cyclopenta[a]phenanthren-17(14H)-one] |  |  |  |  |  |  |  | 68.8% | 84.9% | 83% | 80.3% | 65.6% | 78.9% | 60.4% | IC50 ([1]; Homo sapiens, A549): 15.8 µM; Selectivity Index A549 [1, 8]: 1.76; IC50 ([2]; Homo sapiens, HCT-116): 33.2 µM; Selectivity Index HCT116 [2, 8]: 0.83; IC50 ([3]; Homo sapiens, MCF7): 17.8 µM; Selectivity Index MCF-7 [3, 8]: 1.56; IC50 ([4]; Homo sapiens, L02): 27.8 µM; IC50 ([5]; Homo sapiens, HepG2): 36.2 µM; Selectivity Index HepG-2 [5, 8]: 0.77; IC50 ([6]; Homo sapiens, HeLa): 13.2 µM; Selectivity Index Hela [6, 8]: 2.10; IC50 ([7]; Homo sapiens, Bel-7402): 40.4 µM; Selectivity Index BEL7402 [7, 8]: 0.69 |
| Cc1ccc(-n2cc(/C=C3\CC4C5CC=C6CC(O)CCC6(C)C5CCC4(C)C3=O)nn2)cc1 (stereo not shown) [Compound 2p, (E)-3-hydroxy-10,13-dimethyl-16-((1-p-tolyl-1H-1,2,3-triazol-4-yl)methylene)-1,3,4,7,8,9,10,11,12,13,15,16-dodecahydro-2H-cyclopenta[a]phenanthren-17(14H)-one] |  |  |  |  |  |  |  | 63.1% | 76.5% | 21.7% | 67.1% | 76% | 64.6% | 23.7% | IC50 ([1]; Homo sapiens, A549): 56.7 µM; IC50 ([2]; Homo sapiens, HCT-116): 44.1 µM; IC50 ([3]; Homo sapiens, MCF7): > 100 µM; IC50 ([4]; Homo sapiens, L02): 62.2 µM; IC50 ([5]; Homo sapiens, HepG2): 18.9 µM; IC50 ([6]; Homo sapiens, HeLa): 62.4 µM; IC50 ([7]; Homo sapiens, Bel-7402): > 100 µM |
| CC12CCC3C(CC=C4CC(O)CCC43C)C1C/C(=C\c1cn(-c3ccccc3F)nn1)C2=O (stereo not shown) [Compound 2b, (E)-16-((1-(2-fluorophenyl)-1H-1,2,3-triazol-4-yl)methylene)-3-hydroxy-10,13-dimethyl-1,3,4,7,8,9,10,11,12,13,15,16-dodecahydro-2H-cyclopenta[a]phenan-thren-17(14H)-one] | NA (NA: antiproliferative activity <5%) | NA (NA: antiproliferative activity <5%) | NA (NA: antiproliferative activity <5%) | NA (NA: antiproliferative activity <5%) | NA (NA: antiproliferative activity <5%) | NA (NA: antiproliferative activity <5%) | NA (NA: antiproliferative activity <5%) |  |  |  |  |  |  |  |  |
| COc1cc(-n2cc(/C=C3\CC4C5CC=C6CC(O)CCC6(C)C5CCC4(C)C3=O)nn2)cc(OC)c1OC (stereo not shown) [Compound 2u, (E)-3-hydroxy-10,13-dimethyl-16-((1-(3,4,5-trimethoxyphenyl)-1H-1,2,3-triazol-4-yl)methylene)-1,3,4,7,8,9,10,11,12,13,15,16-dodecahydro-2H-cyclopenta[a]phenanthren17(14H)-one] |  |  |  |  |  |  |  | 40.3% | 59.2% | 36.3% | 36.4% | 59.1% | 60.5% | 51.2% |  |
| CC12CCC3C(CC=C4CC(O)CCC43C)C1C/C(=C\c1cn(-c3cccc(Cl)c3)nn1)C2=O (stereo not shown) [Compound 2f, (E)-16-((1-(3-chlorophenyl)-1H-1,2,3-triazol-4-yl)methylene)-3-hydroxy-10,13-dimethyl-1,3,4,7,8,9,10,11,12,13,15,16-dodecahydro-2H-cyclopenta[a]phenanthren-17(14H)-one] |  |  |  |  |  |  |  | 11.9% | 41.9% | 41% | 60.2% | 51.7% | 9.2% | 36.5% |  |
| CC12CCC3C(CC=C4CC(O)CCC43C)C1C/C(=C\c1cn(-c3ccccc3Cl)nn1)C2=O (stereo not shown) [Compound 2e, (E)-16-((1-(2-chlorophenyl)-1H-1,2,3-triazol-4-yl)methylene)-3-hydroxy-10,13-di-methyl-1,3,4,7,8,9,10,11,12,13,15,16-dodecahydro-2H-cyclopenta[a]phenan-thren-17(14H)-one] | NA (NA: antiproliferative activity <5%) | 23.0% | 37.3% | 12.4% | NA (NA: antiproliferative activity <5%) | 32.8% | 10.5% |  |  |  |  |  |  |  |  |
| Cc1cccc(-n2cc(/C=C3\CC4C5CC=C6CC(O)CCC6(C)C5CCC4(C)C3=O)nn2)c1 (stereo not shown) [Compound 2o, (E)-3-hydroxy-10,13-dimethyl-16-((1-m-tolyl-1H-1,2,3-triazol-4-yl)methylene)-1,3,4,7,8,9,10,11,12,13,15,16-dodecahydro-2H-cyclopenta[a]phenanthren-17(14H)-one] |  |  |  |  |  |  |  | < 5% | 40.9% | 11.2% | 40.1% | 12.8% | 12.7% | 30.5% |  |
| CC12CCC3C(CC=C4CC(O)CCC43C)C1C/C(=C\c1cn(-c3ccc([N+](=O)[O-])cc3)nn1)C2=O (stereo not drawn) [Compound 2v, (E)-3-hydroxy-10,13-dimethyl-16-((1-(4-nitrophenyl)-1H-1,2,3-triazol-4-yl)methylene)1,3,4,7,8,9,10,11,12,13,15,16-dodecahydro-2H-cyclopenta[α]phenan-thren-17(14H)-one] | NA (NA: antiproliferative activity <5%) | 10.2% | NA (NA: antiproliferative activity <5%) | 5.5% | 12.4% | NA (NA: antiproliferative activity <5%) | 13.2% |  |  |  |  |  |  |  |  |
